Data as given in patent US12532884B2, “Fungicidal compositions” (SYNGENTA CROP PROTECTION AG, priority 2020, dated 2026).
Like-named read-outs stand apart in the source and are kept apart here.

Tests used:
Phakopsora pachyrhizi = experiment: Example D: preventative activity against Phakopsora pachyrhizi on soybean (whole plants sprayed, leaf disks inoculated); type: in vivo
Description: (§1) Certain mixture compositions comprising a compound of formula (I) described above may show a synergistic effect. This occurs whenever the action of an active ingredient combination is greater than the sum of the actions of the individual components. The action to be expected E for a given active ingredient combination obeys the so-called COLBY formula and can be calculated as follows (COLBY, S. R. “Calculating synergistic and antagonistic responses of herbicide combination”. Weeds, Vol. 15, pages 20-22; 1967): • ppm=milligrams of active ingredient (=a.i.) per liter of spray mixture • X=% action by active ingredient A) using p ppm of active ingredient • Y=% action by active ingredient B) using q ppm of active ingredient.
(§2) According to COLBY, the expected (additive) action of active ingredients A)+B) using p+q ppm of active ingredient is:
(§3) If the action actually observed (O) is greater than the expected action (E), then the action of the combination is super-additive, i.e. there is a synergistic effect. In mathematical terms, synergism corresponds to a positive value for the difference of (O-E). In the case of purely complementary addition of activities (expected activity), said difference (O-E) is zero. A negative value of said difference (O-E) signals a loss of activity compared to the expected activity.
Whole soybean plants are treated with the recited active ingredients 4 weeks after planting. 1 day after spraying leaf disks are cut from the first trifoliate leaf. Five repetitions at each rate are conducted. The leaf disks are inoculated with Phakopsora pachyrhizi (Asian soybean rust) one day after treatment. Evaluation of the leaf disks is conducted 11 to 14 days after inoculation and the activity is derived from the relation of the treated vs untreated, infested check. (100=no disease, no damage to the leaf, 0=high infestation, leaf damaged heavily). The rates of the active ingredients used are given in the tables as g active ingredient (a.i.)/ha.

Septoria glycines = experiment: Example C3: mixtures against Septoria glycines (brown spot), liquid culture; type: cell-based; conditions: for inhibition at 0.1 ppm / inhibition at 0.3 ppm: Septoria glycines, read-out: Activity (%)
Description: This occurs whenever the action of an active ingredient combination is greater than the sum of the actions of the individual components. The action to be expected E for a given active ingredient combination obeys the so-called COLBY formula and can be calculated as follows (COLBY, S. R. “Calculating synergistic and antagonistic responses of herbicide combination”. Weeds, Vol. 15, pages 20-22; 1967): • ppm=milligrams of active ingredient (=a.i.) per liter of spray mixture • X=% action by active ingredient A) using p ppm of active ingredient • Y=% action by active ingredient B) using q ppm of active ingredient.
as §2, §3
Mycelia fragments or conidia suspensions of a fungus prepared either freshly from liquid cultures of the fungus or from cryogenic storage, are directly mixed into nutrient broth. DMSO solutions of the test compound (max. 10 mg/mL) are diluted with 0.025% Tween20 by a factor of 50 and 10 μl of this solution is pipetted into a microtiter plate (96-well format). […] The test plates are incubated in the dark at 24° C. and 96% relative humidity. The inhibition of fungal growth is determined photometrically after 2 to 7 days, depending on the pathosystem, and percent antifungal activity relative to the untreated check is calculated.
Conidia of the fungus harvested from a fresh culture grown on artificial media, were directly mixed into nutrient broth (PDB potato dextrose broth). A DMSO solution of the test compounds was placed into a microtiter plate (96-well format) and the nutrient broth containing the fungal spores was added to it.
Fungicidal activity was evaluated on a 100-0 scale (100=no disease growth; 0=well completely covered by mycelium).

Septoria tritici = experiment: Example C2: mixtures against Septoria tritici (leaf blotch), liquid culture; type: cell-based; conditions: for inhibition at 0.3 ppm: read-out: Activity (%)
Description: as §1, §2, §3
Mycelia fragments or conidia suspensions of a fungus prepared either freshly from liquid cultures of the fungus or from cryogenic storage, are directly mixed into nutrient broth. DMSO solutions of the test compound (max. 10 mg/mL) are diluted with 0.025% Tween20 by a factor of 50 and 10 μl of this solution is pipetted into a microtiter plate (96-well format). The nutrient broth containing the fungal spores/mycelia fragments is then added to give an end concentration of the tested compound. The test plates are incubated in the dark at 24° C. and 96% relative humidity. The inhibition of fungal growth is determined photometrically after 2 to 7 days, depending on the pathosystem, and percent antifungal activity relative to the untreated check is calculated.
Conidia of the fungus from cryogenic storage were directly mixed into nutrient broth (PDB potato dextrose broth). A DMSO solution of the test compounds was placed into a microtiter plate (96-well format) and the nutrient broth containing the fungal spores was added to it.
The following mixture compositions at the reported concentration (in ppm) in tables C2-3 to C2-5 gave the following disease control in this test Septoria tritici (leaf blotch). Fungicidal activity was evaluated on a 100-0 scale (100=no disease growth; 0=well completely covered by mycelium).

[1] = single active ingredient, 4.5 g/ha
[2] = single component, 0.1 ppm, 100-0 scale (100=no disease growth)
[3] = single component, 0.3 ppm, 100-0 scale (100=no disease growth)
[4] = Phakopsora pachyrhizi, foliar, applied alone, 9 g/ha, read-out: Observed Activity (% of untreated)
[5] = Phakopsora pachyrhizi, foliar, applied alone, 18 g/ha, read-out: Observed Activity (% of untreated)
[6] = Phakopsora pachyrhizi, foliar, single active ingredient, 9 g/ha, read-out: Observed Activity (%)
[7] = Phakopsora pachyrhizi, foliar, single active ingredient, 18 g/ha, read-out: Observed Activity (%)
[8] = single active ingredient, 9 g/ha
[9] = single active ingredient, 18 g/ha
[10] = Phakopsora pachyrhizi, foliar, applied alone, 22.5 g/ha, read-out: Observed Activity (% of untreated)
[11] = Phakopsora pachyrhizi, foliar, applied alone, 45 g/ha, read-out: Observed Activity (% of untreated)
[12] = Phakopsora pachyrhizi, foliar, applied alone, read-out: Observed Activity (% of untreated)
[13] = Phakopsora pachyrhizi, foliar, single active ingredient, soybean, preventative, 100=no disease, read-out: Observed Activity (%)
[14] = Phakopsora pachyrhizi, foliar, applied alone, 4.5 g/ha, read-out: Observed Activity (% of untreated)
[15] = Phakopsora pachyrhizi, foliar, single active ingredient, 4.5 g/ha, read-out: Observed Activity (%)
[16] = Zymoseptoria tritici, single component, 0.3 ppm, 100-0 scale
[17] = single component, 0.3 ppm, 100-0 scale

SMILES: Cn1cc(C(=O)Nc2cccc3c2[C@@H]2CC[C@H]3C2=C(Cl)Cl)c(C(F)F)n1 (racemic) [Benzovindiflupyr]
- Observed Activity (% of untreated) (Phakopsora pachyrhizi; applied alone, 2.25 g/ha): 92%
- Observed Activity (% of untreated) (Phakopsora pachyrhizi; applied alone, 4.5 g/ha): 94%
- Observed Activity (%) (Phakopsora pachyrhizi; single active ingredient, 2.25 g/ha): 92%
- Observed Activity (%) (Phakopsora pachyrhizi; [1]): 94%

SMILES: CC(C)(C)[C@@H](O)[C@@H](Cc1ccc(Cl)cc1)n1cncn1 (racemic) [paclobutrazol]
- inhibition at 0.1 ppm (Septoria glycines; [2]): 0%
- inhibition at 0.3 ppm (Septoria glycines; [3]): 50%

SMILES: CNC(=O)C(=N/OC)/C(C)=C\COc1ccn(-c2ccc(Cl)cc2Cl)n1 [(Z,2E)-5-[1-(2,4-dichlorophenyl)pyrazol-3-yl]oxy-2-methoxyimino-N,3-dimethyl-pent-3-enamide]
- inhibition at 9 g/ha (Phakopsora pachyrhizi; [4]): 2%
- inhibition at 18 g/ha (Phakopsora pachyrhizi; [5]): 3%
- inhibition at 9 g/ha (Phakopsora pachyrhizi; [6]): 2%
- inhibition at 18 g/ha (Phakopsora pachyrhizi; [7]): 3%

SMILES: CO/C=C(/C(=O)OC)c1ccccc1Oc1cc(Oc2ccccc2C#N)ncn1 [Azoxystrobin]
- Observed Activity (% of untreated) (Phakopsora pachyrhizi; applied alone, 2.25 g/ha): 0%
- Observed Activity (% of untreated) (Phakopsora pachyrhizi; applied alone, 4.5 g/ha): 15%
- Observed Activity (% of untreated) (Phakopsora pachyrhizi; applied alone, 9 g/ha): 23%
- Observed Activity (% of untreated) (Phakopsora pachyrhizi; applied alone, 18 g/ha): 9%
- Observed Activity (%) (Phakopsora pachyrhizi; [1]): 0%
- Observed Activity (%) (Phakopsora pachyrhizi; [8]): 2%
- Observed Activity (%) (Phakopsora pachyrhizi; [9]): 26%

SMILES: CC(C1CC1)C(O)(Cn1cncn1)c1ccc(Cl)cc1 (centres unmarked) [Cyproconazole]
- inhibition at 22.5 g/ha (Phakopsora pachyrhizi; [10]): 51%
- inhibition at 45 g/ha (Phakopsora pachyrhizi; [11]): 52%

SMILES: CC1COC(Cn2cncn2)(c2ccc(Oc3ccc(Cl)cc3)cc2Cl)O1 (centres unmarked) [Difenoconazole]
- inhibition at 22.5 g/ha (Phakopsora pachyrhizi; [10]): 0%
- inhibition at 45 g/ha (Phakopsora pachyrhizi; [11]): 0%

SMILES: CC(Cc1ccc(C(C)(C)C)cc1)CN1CCCCC1 (centres unmarked) [Fenpropidin, reference compound]
- inhibition at 225 g/ha (Phakopsora pachyrhizi; [12]): 64%
- inhibition at 450 g/ha (Phakopsora pachyrhizi; [12]): 61%
- inhibition at 900 g/ha (Phakopsora pachyrhizi; [12]): 82%
- inhibition at 225 g/ha (Phakopsora pachyrhizi; [13]): 64%
- inhibition at 450 g/ha (Phakopsora pachyrhizi; [13]): 61%
- inhibition at 900 g/ha (Phakopsora pachyrhizi; [13]): 82%
- inhibition at 0.1 ppm (Septoria glycines; [2]): 0%
- inhibition at 0.3 ppm (Septoria glycines; [3]): 50%

SMILES: CC(Cc1ccc(C(C)(C)C)cc1)CN1C[C@@H](C)O[C@@H](C)C1 (some centres unmarked) [Fenpropimorph, reference compound]
- inhibition at 225 g/ha (Phakopsora pachyrhizi; [12]): 8%
- inhibition at 450 g/ha (Phakopsora pachyrhizi; [12]): 43%
- inhibition at 900 g/ha (Phakopsora pachyrhizi; [12]): 76%
- inhibition at 225 g/ha (Phakopsora pachyrhizi; [13]): 8%
- inhibition at 450 g/ha (Phakopsora pachyrhizi; [13]): 43%
- inhibition at 900 g/ha (Phakopsora pachyrhizi; [13]): 76%
- inhibition at 0.1 ppm (Septoria glycines; [2]): 50%
- inhibition at 0.3 ppm (Septoria glycines; [3]): 70%

SMILES: Cc1cccc(-n2nnn(C)c2=O)c1COc1ccn(-c2ccc(Cl)cc2)n1 [Metyltetraprole]
- Observed Activity (% of untreated) (Phakopsora pachyrhizi; applied alone, 9 g/ha): 2%
- Observed Activity (% of untreated) (Phakopsora pachyrhizi; applied alone, 18 g/ha): 2%
- Observed Activity (%) (Phakopsora pachyrhizi; [8]): 2%
- Observed Activity (%) (Phakopsora pachyrhizi; [9]): 2%

SMILES: OC(Cc1ccccc1Cl)(Cn1nc[nH]c1=S)C1(Cl)CC1 (centres unmarked) [Prothioconazole]
- inhibition at 22.5 g/ha (Phakopsora pachyrhizi; [10]): 74%
- inhibition at 45 g/ha (Phakopsora pachyrhizi; [11]): 76%

SMILES: CON(C(=O)c1cn(C)nc1C(F)F)C(C)Cc1c(Cl)cc(Cl)cc1Cl (centres unmarked) [Pydiflumetofen]
- Observed Activity (% of untreated) (Phakopsora pachyrhizi; applied alone, 22.5 g/ha): 0%
- Observed Activity (% of untreated) (Phakopsora pachyrhizi; applied alone, 45 g/ha): 4%

SMILES: COC(=O)N(OC)c1ccccc1COc1ccn(-c2ccc(Cl)cc2)n1 [Pyraclostrobin]
- inhibition at 4.5 g/ha (Phakopsora pachyrhizi; [14]): 1%
- inhibition at 9 g/ha (Phakopsora pachyrhizi; [4]): 1%
- inhibition at 18 g/ha (Phakopsora pachyrhizi; [5]): 0%
- inhibition at 4.5 g/ha (Phakopsora pachyrhizi; [15]): 1%
- inhibition at 9 g/ha (Phakopsora pachyrhizi; [6]): 1%
- inhibition at 18 g/ha (Phakopsora pachyrhizi; [7]): 0%

SMILES: CON=C(C(=O)OC)c1ccccc1CON=C(C)c1cccc(C(F)(F)F)c1 [Trifloxystrobin]
- inhibition at 2.25 g/ha (Phakopsora pachyrhizi; Phakopsora pachyrhizi, foliar, applied alone, 2.25 g/ha, read-out: Observed Activity (% of untreated)): 0%
- inhibition at 4.5 g/ha (Phakopsora pachyrhizi; [14]): 3%
- inhibition at 9 g/ha (Phakopsora pachyrhizi; [4]): 0%
- inhibition at 18 g/ha (Phakopsora pachyrhizi; [5]): 19%
- inhibition at 4.5 g/ha (Phakopsora pachyrhizi; [15]): 0%
- inhibition at 9 g/ha (Phakopsora pachyrhizi; [6]): 1%
- inhibition at 18 g/ha (Phakopsora pachyrhizi; [7]): 33%

SMILES: CC(C1CC1)C(O)(Cn1cncn1)c1ccc(Cl)cc1 (centres unmarked) [cyproconazole]
- inhibition at 0.1 ppm (Septoria glycines; [2]): 20%
- inhibition at 0.3 ppm (Septoria tritici; [16]): 50%

SMILES: N#Cc1c[nH]cc1-c1cccc2c1OC(F)(F)O2 [fludioxonil]
- inhibition at 0.1 ppm (Septoria glycines): 0%
- inhibition at 0.3 ppm (Septoria glycines): 20%
- inhibition at 0.3 ppm (Septoria tritici; Zymoseptoria tritici): 20%

SMILES: O=C(NCCc1ncc(C(F)(F)F)cc1Cl)c1ccccc1C(F)(F)F [fluopyram]
- inhibition at 0.1 ppm (Septoria glycines; [2]): 0%
- inhibition at 0.3 ppm (Septoria glycines; [3]): 50%

SMILES: OC(Cn1cncn1)(c1ccc(F)cc1)c1ccccc1F (centres unmarked) [flutriafol]
- inhibition at 0.1 ppm (Septoria glycines; [2]): 20%
- inhibition at 0.3 ppm (Septoria glycines; [3]): 70%

SMILES: Cn1cc(C(=O)Nc2ccccc2-c2cc(F)c(F)c(F)c2)c(C(F)F)n1 [fluxapyroxad]
- Activity (%) (Septoria glycines; single component, 0.1 ppm): 50%
- Activity (%) (Septoria glycines; [2]): 50%
- Activity (%) (Septoria glycines; single component, 0.3 ppm): 70%
- Activity (%) (Septoria glycines; [3]): 70%

SMILES: CCCCC(O)(Cn1cncn1)c1ccc(Cl)cc1Cl (centres unmarked) [hexaconazole]
- inhibition at 0.1 ppm (Septoria tritici; Zymoseptoria tritici, single component, 0.1 ppm, 100-0 scale (100=no disease growth)): 70%

SMILES: CC(C)C1C2CCC1c1c(NC(=O)c3cn(C)nc3C(F)F)cccc12 (centres unmarked) [isopyrazam]
- Activity (%) (Septoria glycines; single component, 0.1 ppm): 70%
- Activity (%) (Septoria glycines; [2]): 70%
- Activity (%) (Septoria glycines; single component, 0.3 ppm): 70%
- Activity (%) (Septoria glycines; [3]): 70%
- Activity (%) (Septoria tritici; [2]): 50%
- Activity (%) (Septoria tritici; [17]): 70%

SMILES: CCCC1COC(Cn2cncn2)(c2ccc(Cl)cc2Cl)O1 (centres unmarked) [propiconazole]
- inhibition at 0.3 ppm (Septoria tritici; [16]): 70%

SMILES: CC1(C)N=C(c2cnc3ccccc3c2)c2ccccc2C1(F)F [quinofumelin]
- Activity (%) (Septoria tritici; [17]): 0%

SMILES: S1SSSSSSS1 [sulphur]
- inhibition at 0.3 ppm (Septoria glycines; [3]): 0%

SMILES: CC(C)(C)C(O)(CCc1ccc(Cl)cc1)Cn1cncn1 (centres unmarked) [tebuconazole]
- inhibition at 0.1 ppm (Septoria glycines; [2]): 70%

SMILES: CCOC(=O)C1CC(=O)C(=C(O)C2CC2)C(=O)C1 (centres unmarked) [trinexapac-ethyl]
- inhibition at 0.3 ppm (Septoria glycines; [3]): 0%
